Columns and labels:
endogenous BACE1 = target: T1, endogenous BACE1 (Mus musculus, UniProt P56818); test: Staining of endogenous BACE1 in brain slices; settings: 250 nM probe, BACE1+/+ vs BACE1–/– mice
T1 construct: from tissue; host or cells: mouse brain cryosections (hippocampus, cerebellum), C57BL/6J background, P16
Text: Areas with high expression such as the hippocampal MFB[38] or cerebellar Purkinje cells[39],[40] are readily distinguished. However, all primary anti-BACE1 antibodies tested in our lab produced a significant background in samples of BACE1 knockout mice.[20],[23] […] We wondered if our new Alexa-C3 compounds could outperform existing probes in endogenous tissue. […] Close to the hilus, we depicted the MFB additionally at higher magnification (Figure 4B). […] From this set of data and from previous experiments using anti-BACE1 antibodies and SiR-BACE1 we calculated the ratio of the signal in the hilar region to the signal in the molecular layer (Figure 4C), since the molecular layer (red box in Figure 4C) is more affected by background fluorescence due to the relatively low BACE1 expression level.
(A) Images of the hippocampus depict the mossy fiber bundle (MFB) with high BACE1 expression with the intervening CA3 pyramidal cell layer (CA3) and proximal dentate gyrus (DG). […] The scale bar represents 200 μm. […]
For quantification of hippocampal BACE1 staining, mean intensities of the mossy fiber bundle were divided by the mean intensity of the molecular layer of the dentate gyrus. Mean intensities were calculated from rectangular regions of interest. In addition, analysis was performed on images of hippocampal BACE1 labeling with SiR-BACE1 recorded previously.[31]

[1] = target: T2, hBACE1 fused to EGFP or mCherry in HEK293T cells (Homo sapiens, UniProt P56817); test: Staining of transfected HEK293T cells, confocal imaging: BACE1; format: cell-based; settings: for staining of BACE1 after preincubation with unconjugated C3: living HEK293T, preincubation with 2 μM C3
T2 construct: expressed in transfected cells; host or cells: HEK293T
Method: Next, we explored the performance of the new Alexa-C3 compounds in living cells. Because of the rather hydrophilic properties, we exclusively targeted the cell membrane. To prevent intracellular accumulation, we first performed stainings at 4 °C arresting ATP-dependent endocytosis. […] All of the constructs were tagged at the C-terminus with either EGFP or mCherry to visualize subcellular expression. […] With these experiments, we want to exclude that a lack of staining is caused by an impaired accessibility of the protein by Alexa-C3 compounds. […] We then tested samples with BACE1 expression after fixation of the cells with paraformaldehyde (PFA).
(D) All conjugates were also probed on cells fixed with 4% paraformaldehyde (PFA) for 15 min prior to staining. […] Scale bars represent 5 μm (A–D) and 20 μm (E). […] Samples were excited at 488, 561, and 633 nm, respectively.
HEK293T cells (ATCC accession number CRL-11268) were maintained in Dulbecco's modified Eagle's medium (Sigma-Aldrich D6046) with 1g/L glucose, supplemented with 10% FCS (Merck) and 1% penicillin/streptomycin (PAA). CHO-K1 cells (ATCC #CCL-61) were maintained in modified phenol red free RPMI-1640 medium (Sigma-Aldrich, R7509), supplemented with 2 mM L-glutamine (Sigma-Aldrich, G7513), and 10% FCS (Merck). Cells were cultured at 37 °C in a 5% CO2 atmosphere. The following plasmids were used for transfection with the amount of DNA indicated (per 35 mm Petri dish): hBACE1 (NM_012104.4), 50 ng for single molecule recordings, 200 ng otherwise; hBACE1 fused to EGFP or mCherry, 75 ng; hBACE1 D289N fused to EGFP or mCherry, 75 ng; hBACE1 D289N, 200–400 ng; hBACE2 (NM_012105.3) fused to EGFP, 75 ng; hCathepsinD (HsCD00438327), Harvard PlasmID, 75 ng. Transfection was performed 24 h after plating using jetPEI (Polyplus) according to the manufacturer’s protocol.
For labeling, we plated HEK293T cells onto sterile 18 mm 1.5H borosilicate coverslips (VWR), coated with poly-D-lysine (Sigma). […] In addition, some cells were also fixed with 4% PFA or permeabilized with HBS + 50 μg/mL of Saponin for 15 min prior to staining as stated in the figure legend. After staining, live cells were washed with HBS twice. Confocal imaging was conducted at room temperature in HBS using the 63× objective and the pinhole set to 1 AU. Confocal imaging was performed 24 h after transfection.

[2] = target: recombinant human BACE1 protein (amino acids 1–457, extracellular domain) (Homo sapiens, UniProt P56817); test: Fluorescence correlation spectroscopy (FCS) with BACE1 ECD in solution
Chain of recombinant human BACE1 protein (amino acids 1–457, extracellular domain) (P56817 22-457): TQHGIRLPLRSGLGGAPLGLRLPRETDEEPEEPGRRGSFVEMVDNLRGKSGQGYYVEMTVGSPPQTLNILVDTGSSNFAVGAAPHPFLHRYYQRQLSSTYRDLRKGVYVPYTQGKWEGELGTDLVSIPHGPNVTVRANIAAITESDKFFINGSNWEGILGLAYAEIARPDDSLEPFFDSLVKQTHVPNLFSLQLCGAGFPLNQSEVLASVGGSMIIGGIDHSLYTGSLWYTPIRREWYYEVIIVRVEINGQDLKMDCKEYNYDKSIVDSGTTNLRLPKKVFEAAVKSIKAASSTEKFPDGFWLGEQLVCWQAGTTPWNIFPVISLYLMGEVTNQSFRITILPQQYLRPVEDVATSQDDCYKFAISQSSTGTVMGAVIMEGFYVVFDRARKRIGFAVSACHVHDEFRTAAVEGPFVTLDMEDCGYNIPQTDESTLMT

T2 sequence (P56817 46-501): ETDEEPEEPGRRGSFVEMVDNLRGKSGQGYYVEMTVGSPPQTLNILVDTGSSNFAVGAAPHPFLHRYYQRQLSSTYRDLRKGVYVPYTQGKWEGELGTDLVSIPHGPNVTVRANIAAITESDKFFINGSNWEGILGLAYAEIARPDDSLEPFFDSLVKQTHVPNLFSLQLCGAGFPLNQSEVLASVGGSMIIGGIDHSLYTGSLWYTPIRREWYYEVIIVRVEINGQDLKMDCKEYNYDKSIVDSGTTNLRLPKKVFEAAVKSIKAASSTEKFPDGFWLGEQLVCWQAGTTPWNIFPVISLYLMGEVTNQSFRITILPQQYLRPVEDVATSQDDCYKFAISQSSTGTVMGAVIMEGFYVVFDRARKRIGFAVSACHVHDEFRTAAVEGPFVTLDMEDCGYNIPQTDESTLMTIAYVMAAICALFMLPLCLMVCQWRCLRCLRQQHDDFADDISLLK
T1 sequence (P56818 46-501): as the sequence (P56817 46-501) above, with P6S, V162I, L165I, S180T, V182A, I340V, L393A, Q443H counted along it

Structure (SMILES): C[C@@H](NC(=O)c1cc(C(=O)N[C@@H](Cc2ccccc2)[C@H](O)CNC2CC2)cc(N(C)S(=O)(=O)CCCNC(=O)c2ccc(C(=O)O)c(-c3c4ccc(=N)c(S(=O)(=O)O)c-4oc4c(S(=O)(=O)O)c(N)ccc34)c2)c1)c1ccccc1 [2-(6-Amino-3-iminio-4,5-disulfo-3H-xanthen-9-yl)-4-((3-(N-(3-(((2S,3R)-4-(cyclopropylamino)-3-hydroxy-1-phenylbutan-2-yl)carbamoyl)-5-(((R)-1-phenylethyl)carbamoyl)phenyl)-N-methylsulfamoyl)propyl)carbamoyl)benzoate]
- labeling of endogenous BACE1 in brain slices (endogenous BACE1): labeled BACE1 in a typical pattern
- staining of BACE1 after preincubation with unconjugated C3 [1]: no appreciable fluorescence
- EC50 [2]: 9.77 nM
- diffusion time constant of the second (BACE1-bound, slow) population ([2]; 100 nM probe with BACE1 ECD, pH 5, mean ± SEM, n = 3 preparations): 310 ± 10 μs

Structure (SMILES): C[C@@H](NC(=O)c1cc(C(=O)N[C@@H](Cc2ccccc2)[C@H](O)CNC2CC2)cc(N(C)S(=O)(=O)CCCNC(=O)CCCCCC2(C)C(/C=C/C=C/C=C3/N(CCCS(=O)(=O)O)c4ccc(S(=O)(=O)O)cc4C3(C)C)=[N+](CCCS(=O)(=O)[O-])c3ccc(S(=O)(=O)O)cc32)c1)c1ccccc1 (stereo partly drawn)
- labeling of endogenous BACE1 in brain slices (endogenous BACE1): unsuccessful
- specificity in permeabilized cells ([1]; 50 μg/mL saponin prior to staining, 100 nM probe): the same specificity was observed
- staining of BACE1 after fixation with PFA ([1]; HEK293T fixed with 4% PFA for 15 min prior to staining): did not yield a considerable signal
- staining of BACE1 after preincubation with unconjugated C3 [1]: absence of any staining
- additional slow diffusing component with BACE1 ECD ([2]; 100 nM probe with BACE1 ECD, pH 5): no additional slow component was observed

Reference: paper PMC11215771 (Journal of Medicinal Chemistry, 2024)
